Reference: PMC11061149, “Protein mimetic 2D FAST rescues alpha synuclein aggregation mediated early and post disease Parkinson’s phenotypes” (Nature Communications, 2024)
Where “and” joins values, the source holds several entries; their conditions need not be identical. Equal values may be shown once.

Target: T1, α-Synuclein (αS) aggregation (Homo sapiens, UniProt P37840)
T1 construct: made in house; host or cells: E. coli BL21(DE3)
Test: Thioflavin T (ThT) dye-based αS aggregation assay (de novo)
Type: biochemical
Method in brief: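 100 μM αS incubated ±ligand at equimolar ratio, 37 °C with shaking at 1300 rpm; aliquots diluted into PBS containing 50 μM ThT. Fluorescence read at λex 450/λem 490 nm over time, single-point value taken at 96 h; mean of triplicates.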

ThT fluorescence intensity, Average (100 µM αS + equimolar ligand, aggregation profile Fig. 2n/5c, time 0 hr): 108
ThT fluorescence intensity, Average (100 µM αS + equimolar ligand, comparison with reported ligands Fig. 5f, time 0 hr): 49.3333
effect on αS aggregation (ThT assay), in words (100 µM αS, equimolar, four days): completely suppressed
ThT intensity relative to Synuclein alone (=1), Average (100 µM αS, four days, equimolar): 0.008333
ThT intensity relative to Synuclein alone (=1), Trial 1-3 (100 µM αS, four days, equimolar, individual trials): 0.009745 and 0.008898 and 0.006356
ThT fluorescence intensity, Average (Fig. 2n/5c profile, time 6 hr): 108
ThT fluorescence intensity, Average (Fig. 2n/5c profile, time 12 hr): 44.6667
ThT fluorescence intensity, Average (Fig. 2n/5c profile, time 24 hr): 48.6667
ThT fluorescence intensity, Average (Fig. 2n/5c profile, time 35 hr): 41
ThT fluorescence intensity, Average (Fig. 2n/5c profile, time 48 hr): 76.6667
ThT fluorescence intensity, Average (Fig. 2n/5c profile, time 58 hr): 49
ThT fluorescence intensity, Average (Fig. 2n/5c profile, time 77 hr): 35
ThT fluorescence intensity, Average (Fig. 2n/5c profile, time 105 hr): 35.3333
ThT fluorescence intensity, Average (Fig. 5f profile, time 6 hr): 35.6667
ThT fluorescence intensity, Average (Fig. 5f profile, time 12 hr): 44.3333
ThT fluorescence intensity, Average (Fig. 5f profile, time 24 hr): 46
ThT fluorescence intensity, Average (Fig. 5f profile, time 36 hr): 47.6667
ThT fluorescence intensity, Average (Fig. 5f profile, time 48 hr): 43.6667
ThT fluorescence intensity, Average (Fig. 5f profile, time 72 hr): 43.6667
ThT fluorescence intensity, Average (Fig. 5f profile, time 96 hr): 44.6667
Relative ThT intensity of αS aggregation, Average (sheet S7A, Synuclein alone about 1): 0.008333
Relative ThT intensity of αS aggregation (sheet S7A, Synuclein alone about 1, individual trials): 0.009745 and 0.008898 and 0.006356
Relative ThT intensity of αS aggregation, Average (sheet S8B, Synuclein alone = 1): 0.04997
Relative ThT intensity of αS aggregation (sheet S8B, Synuclein alone about 1, individual trials): 0.0476 and 0.0492 and 0.0531
ThT intensity of Synuclein with ligand, Average (sheet S17, average of 3 trials, Synuclein alone 206, ThT control 37): 50.3667
ThT intensity of Synuclein with ligand, Trial 1-3 (sheet S17, individual trials, Synuclein alone average 206, ThT control average 37): 48.4 and 53.2 and 49.5
inhibition of αS aggregation, in words (substoichiometric ratio αS:NS132 1:0.2): wholly inhibit
ThT intensity (raw), individual trials (αS aggregation after four days, NS132 derivatives equimolar (Fig. 2r)): 1344 and 1402 and 1510
Structure (SMILES): Cc1ccc(NC(=O)c2ccc(NC(=O)c3ccc([N+](=O)[O-])c(NCCc4c[nH]c5ccccc45)n3)c(NCC3CCCCC3)n2)c(OCC(=O)O)n1 [NS132]
